How the values were obtained:
K562 [1] = assay: Antiproliferative activity against human K562 cells assessed as reduction in cell growth after 72 hrs by MTT assay; format: functional, cell-based; details: K562, 72 h
SW480 = assay: Antiproliferative activity against human SW480 cells assessed as reduction in cell growth after 72 hrs by MTT assay; format: functional, cell-based; details: SW480, 72 h
MDA-MB-231 = assay: Antiproliferative activity against human MDA-MB-231 cells assessed as reduction in cell growth after 72 hrs by MTT assay; format: functional, cell-based; details: MDA-MB-231, 72 h
SMMC-7721 = assay: Antiproliferative activity against human SMMC-7721 cells assessed as reduction in cell growth after 72 hrs by MTT assay; format: functional, cell-based; details: SMMC-7721, 72 h
K562 [2] = assay: Potency index, ratio of oridonin IC50 to compound IC50 for antiproliferative activity against human K562 cells after 72 hrs by MTT assay; format: functional
[3] = Cytotoxicity against human L02 cells incubated for 72 hrs by MTT assay; format: toxicity, cell-based
[4] = Selectivity index, ratio of IC50 for human L02 cells to IC50 for human SMMC-7721 cells; format: toxicity; details: L02 cells versus SMMC-7721 cells, read-out: Ratio IC50

Question: Which IC50 (K562 [1]) does the source give for `C=C1C(=O)[C@@]23C(=O)O[C@H]4CCC(C)(C)[C@H]5C(=O)OC[C@]45[C@H]2CC[C@@H]1[C@H]3OC(=O)/C=C/c1ccncc1F` here?
Answer: 680 nM

Question: And the IC50 (SW480)?
Answer: 970 nM

Question: What about the IC50 (MDA-MB-231) of the same compound?
Answer: 870 nM

Question: What about the IC50 (SMMC-7721) of the same compound?
Answer: 990 nM

Question: What does the source list for `C=C1C(=O)[C@@]23C(=O)OC[C@]4(C=CCC(C)(C)[C@H]4C=O)[C@@H]2CC[C@@H]1[C@H]3OC(=O)/C=C/c1ccc2ccccc2c1`?
Answer: IC50 (K562 [1]): 1890 nM; IC50 (SW480): 3100 nM; IC50 (MDA-MB-231): 2430 nM; IC50 (SMMC-7721): 2200 nM

Question: With `C=C1C(=O)[C@@]23C(=O)O[C@H]4CCC(C)(C)[C@H]5C(=O)OC[C@]45[C@H]2CC[C@@H]1[C@H]3O` as the compound, how does the IC50 (K562 [1]) read?
Answer: 5520 nM

Question: And the IC50 (SW480)?
Answer: 6600 nM

Question: And the IC50 (MDA-MB-231)?
Answer: 7620 nM

Question: And the IC50 (SMMC-7721)?
Answer: 5670 nM

Question: Which IC50 (K562 [1]) does the source give for `C=C1C(=O)[C@@]23C(=O)OC[C@]4(C=CCC(C)(C)[C@H]4C=O)[C@@H]2CC[C@@H]1[C@H]3OC(=O)/C=C/c1ccncc1` here?
Answer: 590 nM

Question: What about the IC50 (SW480) of the same compound?
Answer: 820 nM

Question: And the IC50 (MDA-MB-231)?
Answer: 750 nM

Question: What about the IC50 (SMMC-7721) of the same compound?
Answer: 1710 nM

Question: And the “Ratio IC50” value (K562 [2])?
Answer: 7

Question: Which IC50 (K562 [1]) does the source give for `C=C1C(=O)[C@@]23C(=O)O[C@H]4CCC(C)(C)[C@H]5C(=O)OC[C@]45[C@H]2CC[C@@H]1[C@H]3OC(=O)/C=C/c1cncnc1` here?
Answer: 930 nM

Question: And the IC50 (SW480)?
Answer: 1020 nM

Question: What about the IC50 (MDA-MB-231) of the same compound?
Answer: 2170 nM

Question: What about the IC50 (SMMC-7721) of the same compound?
Answer: 1980 nM

Question: Which IC50 (K562 [1]) does the source give for `C=C1C(=O)[C@@]23C(=O)OC[C@]4(C=CCC(C)(C)[C@H]4C=O)[C@@H]2CC[C@@H]1[C@H]3OC(=O)/C=C/c1cncnc1` here?
Answer: 750 nM

Question: And the IC50 (SW480)?
Answer: 980 nM

Question: What about the IC50 (MDA-MB-231) of the same compound?
Answer: 2260 nM

Question: What about the IC50 (SMMC-7721) of the same compound?
Answer: 1980 nM

Question: Which IC50 (K562 [1]) does the source give for `C=C1C(=O)[C@@]23C(=O)OC[C@]4(C=CCC(C)(C)[C@H]4C=O)[C@@H]2CC[C@@H]1[C@H]3OC(=O)/C=C/c1ccc2c(c1)OCO2` here?
Answer: 1850 nM

Question: And the IC50 (SW480)?
Answer: 3490 nM

Question: And the IC50 (MDA-MB-231)?
Answer: 3070 nM

Question: What about the IC50 (SMMC-7721) of the same compound?
Answer: 3170 nM

Question: For `C=C1C(=O)[C@@]23C(=O)OC[C@]4(C=CCC(C)(C)[C@H]4C=O)[C@@H]2CC[C@@H]1[C@H]3OC(=O)/C=C/c1ccccc1`, which IC50 (K562 [1]) is on record?
Answer: 1500 nM

Question: And the IC50 (SW480)?
Answer: 3550 nM

Question: And the IC50 (MDA-MB-231)?
Answer: 3230 nM

Question: And the IC50 (SMMC-7721)?
Answer: 3150 nM

Question: Which IC50 (K562 [1]) does the source give for `C=C1C(=O)[C@@]23C(=O)OC[C@]4(C=CCC(C)(C)[C@H]4C=O)[C@@H]2CC[C@@H]1[C@H]3OC(=O)/C=C/c1ccccn1` here?
Answer: 560 nM

Question: What about the IC50 (SW480) of the same compound?
Answer: 660 nM

Question: What about the IC50 (MDA-MB-231) of the same compound?
Answer: 1260 nM

Question: And the IC50 (SMMC-7721)?
Answer: 790 nM

Question: What does the source list for `C=C1C(=O)[C@@]23C(=O)OC[C@]4(C=CCC(C)(C)[C@H]4C=O)[C@@H]2CC[C@@H]1[C@H]3OC(=O)/C=C/c1ccco1`?
Answer: IC50 (K562 [1]): 1820 nM; IC50 (SW480): 2280 nM; IC50 (MDA-MB-231): 2920 nM; IC50 (SMMC-7721): 2790 nM

Question: With `C=C1C(=O)[C@@]23C(=O)OC[C@]4(C=CCC(C)(C)[C@H]4C=O)[C@@H]2CC[C@@H]1[C@H]3O` as the compound, how does the IC50 (K562 [1]) read?
Answer: 1270 nM

Question: What about the IC50 (SW480) of the same compound?
Answer: 2770 nM

Question: And the IC50 (MDA-MB-231)?
Answer: 2860 nM

Question: What about the IC50 (SMMC-7721) of the same compound?
Answer: 3740 nM

Question: With `C=C1C(=O)[C@]23[C@H](O)[C@H]1CC[C@H]2[C@@]12CO[C@]3(O)[C@@H](O)[C@@H]1C(C)(C)CC[C@@H]2O` [ORIDONIN] as the compound, how does the IC50 (K562 [1]) read?
Answer: 4250 nM

Question: And the IC50 (SW480)?
Answer: 10600 nM

Question: What about the IC50 (SMMC-7721) of the same compound?
Answer: 14400 nM

Question: What about the IC50 at 72 h [3] of the same compound?
Answer: 25000 nM

Question: What about the selectivity ratio [4] of the same compound?
Answer: 1.74

Question: Which IC50 (K562 [1]) does the source give for `C=C1C(=O)[C@@]23C(=O)OC[C@]4(C=CCC(C)(C)[C@H]4C=O)[C@@H]2CC[C@@H]1[C@H]3OC(=O)/C=C/c1ccncc1OC` here?
Answer: 420 nM

Question: What about the IC50 (SW480) of the same compound?
Answer: 580 nM

Question: And the IC50 (MDA-MB-231)?
Answer: 870 nM

Question: And the IC50 (SMMC-7721)?
Answer: 800 nM

Question: With `C=C1C(=O)[C@@]23C(=O)OC[C@]4(C=CCC(C)(C)[C@H]4C=O)[C@@H]2CC[C@@H]1[C@H]3OC(=O)/C=C/c1ccsc1` as the compound, how does the IC50 (K562 [1]) read?
Answer: 2440 nM

Question: And the IC50 (SW480)?
Answer: 3270 nM

Question: And the IC50 (MDA-MB-231)?
Answer: 3760 nM

Question: And the IC50 (SMMC-7721)?
Answer: 3840 nM

Question: For `C=C1C(=O)[C@@]23C(=O)O[C@H]4CCC(C)(C)[C@H]5C(=O)OC[C@]45[C@H]2CC[C@@H]1[C@H]3OC(=O)/C=C/c1ccncc1`, which IC50 (K562 [1]) is on record?
Answer: 550 nM

Question: And the IC50 (SW480)?
Answer: 700 nM

Question: And the IC50 (MDA-MB-231)?
Answer: 820 nM

Question: What about the IC50 (SMMC-7721) of the same compound?
Answer: 840 nM

Question: And the “Ratio IC50” value (K562 [2])?
Answer: 8

Question: Which IC50 (K562 [1]) does the source give for `C=C1C(=O)[C@@]23C(=O)OC[C@]4(C=CCC(C)(C)[C@H]4C=O)[C@@H]2CC[C@@H]1[C@H]3OC(=O)/C=C/c1ccnc(F)c1` here?
Answer: 750 nM

Question: What about the IC50 (SW480) of the same compound?
Answer: 1110 nM

Question: What about the IC50 (MDA-MB-231) of the same compound?
Answer: 790 nM

Question: What about the IC50 (SMMC-7721) of the same compound?
Answer: 920 nM

Question: With `C=C1C(=O)[C@@]23C(=O)O[C@H]4CCC(C)(C)[C@H]5C(=O)OC[C@]45[C@H]2CC[C@@H]1[C@H]3OC(=O)/C=C/c1ccnc(OC)c1` as the compound, how does the IC50 (K562 [1]) read?
Answer: 680 nM

Question: What about the IC50 (SW480) of the same compound?
Answer: 940 nM

Question: And the IC50 (MDA-MB-231)?
Answer: 830 nM

Question: And the IC50 (SMMC-7721)?
Answer: 960 nM

Question: Which results are given for `C=C1C(=O)[C@@]23C(=O)OC[C@]4(C=CCC(C)(C)[C@H]4C=O)[C@@H]2CC[C@@H]1[C@H]3OC(=O)/C=C/c1ccc[nH]1`?
Answer: IC50 (K562 [1]): 1440 nM; IC50 (SW480): 2450 nM; IC50 (MDA-MB-231): 3990 nM; IC50 (SMMC-7721): 2990 nM

Question: Which results are given for `C=C1C(=O)[C@@]23C(=O)O[C@H]4CCC(C)(C)[C@H]5C(=O)OC[C@]45[C@H]2CC[C@@H]1[C@H]3OC(=O)/C=C/c1ccncc1C`?
Answer: IC50 (K562 [1]): 910 nM; IC50 (SW480): 760 nM; IC50 (MDA-MB-231): 1080 nM; IC50 (SMMC-7721): 1080 nM

Question: Which results are given for `C=C1C(=O)[C@@]23C(=O)OC[C@]4(C=CCC(C)(C)[C@H]4C=O)[C@@H]2CC[C@@H]1[C@H]3OC(=O)/C=C/C`?
Answer: IC50 (K562 [1]): 1880 nM; IC50 (SW480): 3800 nM; IC50 (MDA-MB-231): 5120 nM; IC50 (SMMC-7721): 3810 nM

Question: Which IC50 (K562 [1]) does the source give for `C=C1C(=O)[C@@]23C(=O)OC[C@]4(C=CCC(C)(C)[C@H]4C=O)[C@@H]2CC[C@@H]1[C@H]3OC(=O)/C=C/c1ccnc(C)c1` here?
Answer: 980 nM

Question: What about the IC50 (SW480) of the same compound?
Answer: 1690 nM

Question: What about the IC50 (MDA-MB-231) of the same compound?
Answer: 1480 nM

Question: And the IC50 (SMMC-7721)?
Answer: 1020 nM

Question: Which IC50 (K562 [1]) does the source give for `C=C1C(=O)[C@@]23C(=O)O[C@H]4CCC(C)(C)[C@H]5C(=O)OC[C@]45[C@H]2CC[C@@H]1[C@H]3OC(=O)/C=C/c1ccnc(F)c1` here?
Answer: 650 nM

Question: And the IC50 (SW480)?
Answer: 780 nM

Question: And the IC50 (MDA-MB-231)?
Answer: 760 nM

Question: And the IC50 (SMMC-7721)?
Answer: 810 nM

Question: With `C=C1C(=O)[C@@]23C(=O)OC[C@]4(C=CCC(C)(C)[C@H]4C=O)[C@@H]2CC[C@@H]1[C@H]3OC(=O)/C=C/c1ccc2ccccc2n1` as the compound, how does the IC50 (K562 [1]) read?
Answer: 1230 nM

Question: What about the IC50 (SW480) of the same compound?
Answer: 3350 nM

Question: And the IC50 (MDA-MB-231)?
Answer: 5160 nM

Question: And the IC50 (SMMC-7721)?
Answer: 3000 nM

Question: For `C=C1C(=O)[C@@]23C(=O)OC[C@]4(C=CCC(C)(C)[C@H]4C=O)[C@@H]2CC[C@@H]1[C@H]3OC(=O)/C=C/c1ccncc1F`, which IC50 (K562 [1]) is on record?
Answer: 540 nM

Question: What about the IC50 (SW480) of the same compound?
Answer: 730 nM

Question: And the IC50 (MDA-MB-231)?
Answer: 840 nM

Question: And the IC50 (SMMC-7721)?
Answer: 620 nM
